# Key:
# [1] = tested on: bulk Tregs from patient donor material; assay: % of FOXP3+ cells in the expansion product from patient donor material; type: cell-based, human; conditions: 100 nM rapamycin
# Description: Leukopaks were supplied by BioIVT.
# Leukopaks were used to derive Treg populations. […] Where indicated, CD4+CD25+CD127−/low (Bulk Tregs) were used.
# [2] = tested on: Tregs from patient material; assay: Transduction efficiency of expansion product (% Dextramer+/QBEND+)
# Description: A lentiviral vector was used to transduce the cells. The vector encodes an RQR8 safety switch, a FOXP3 polypeptide and an HLA-A2-specific CAR.
# The Tregs were rested in Treg culture media (X-VIVO 15 media (Lonza) supplemented with 5% Human AB serum (heat-inactivated; Merck)) containing 100 nM of rapamycin for 1 hour before activation. The Tregs were then activated by adding CD3 and CD28 beads and cultured for 24 or 48 hours (1+24 and 1+48 conditions respectively). At 24 or 48 hours, the cells were washed with fresh Treg culture media and centrifuged. The supernatant was removed and the cell pellet was resuspended in fresh Treg culture media. The expansion was then continued in the fresh Treg culture media (X-VIVO 15 media (Lonza) supplemented with 5% Human AB serum (heat-inactivated; Merck)) further containing IL-2 (Proleukin, Clinigen Healthcare) and lentiviral supernatant but no rapamycin. Cells were re-fed every 2 to 3 days with Treg culture media supplemented with IL-2. Cells were harvested by removing the CD3 and CD28 beads 14 days after activation.
structure (smiles),measurement,setting,value
CO[C@H]1C[C@@H]2CC[C@@H](C)[C@@](O)(O2)C(=O)C(=O)N2CCCC[C@H]2C(=O)O[C@H]([C@H](C)C[C@@H]2CC[C@@H](O)[C@H](OC)C2)CC(=O)[C@H](C)/C=C(\C)[C@@H](O)[C@@H](OC)C(=O)[C@H](C)C[C@H](C)/C=C/C=C/C=C/1C [rapamycin],% CD4+CD25+FOXP3+ cells,"[1]; donor LTX-008, 1 + 24 h, day 14 (control 80.8)",91.2%
same,% CD4+CD25+FOXP3+ cells,"[1]; donor LTX-008, 1 + 48 h, day 14 (control 80.8)",91.4%
same,% CD4+CD25+FOXP3+ cells,"[1]; donor LTX-0011, 1 + 48 h, day 14 (control 57.3)",92.6%
same,% CD4+CD25+FOXP3+ cells,"[1]; donor LTX-0012, 1 + 48 h, day 14 (control 92.8)",98.2%
same,% CD4+CD25+FOXP3+ cells,"[1]; donor LTX-0013, 1 + 48 h, day 14 (control 41.0)",89.9%
same,% Dextramer+/QBEND+,"[2]; donor LTX-008, 1 + 24 (control 36)",30%
same,% Dextramer+/QBEND+,"[2]; donor LTX-008, 1 + 48 (control 36)",37.8%
same,% Dextramer+/QBEND+,"[2]; donor LTX-0011, 1 + 48 (control 20.5)",30.8%
same,% Dextramer+/QBEND+,"[2]; donor LTX-0012, 1 + 48 (control 10)",11%

# Source: patent US20250250542A1, “CULTURE METHOD” (Quell Therapeutics Limited, priority 2023, published 2025)
